Measured values published in patent publication US7071311B2, “Antibodies having specificity for 2′-C-allyl nucleic acids” (Sirna Therapeutics, Inc., priority 2002, dated 2006).

Columns and labels:
[1] = Immunohistochemistry with CA1USR mAb on kidneys of ribozyme-treated mice (in vivo localization); conditions: for CA1USR mAb immunoreactivity (staining) in kidney: 3 subcutaneous injections of 100 mg/kg, kidney sections stained with CA1USR mAb 5 μg/ml
Procedure: Tissues were harvested from mice injected subcutaneously with either saline or a ribozyme from 60 to 120 min after injection. Animals were perfused with normal saline, then with a solution of 3% paraformaldehyde, 0.5% gluteraldehyde prior to tissue harvest. The tissue was placed in a 30% sucrose solution at 4° C. overnight, then removed, and frozen in a Gentle Jane (Instrumedics; Hackensack, N.J.) Snap-Freezing System with Cryo-Gel Embedding Medium (Instrumedics). Five micron (μm) sections were cut and placed on slides; the slides were allowed to air dry. Prior to staining, slides were quenched in 3% hydrogen peroxide and 0.5% horse serum in PBS, then blocked with M.O.M. Mouse Ig Blocking Reagent (Vector Labs, Burlingame, Calif.) for 1 h, washed with PBS, and stained with the CA1USR MAb at 5 μg/ml in M.O.M. diluent for 30 min. After washing, slides were incubated with M.O.M. Biotinylated Anti-Mouse IgG Reagent for 10 min, washed, and incubated with Vectastain Elite ABC Reagent for 5 min, then developed in DAB chromogen (Vector Labs). Slides were rinsed, counterstained with hematoxylin (Richard-Allan Scientific, Kalamazoo, Mich.), dehydrated, and cover-slipped. Slides were viewed on a Nikon Microphot FXA microscope.

[2] = test system: CA1USR mAb; assay: Competition enzyme immunoassay (EIA): nucleotide competitors against CA1USR mAb binding to 2′-deoxy-2′-C-allyl Uridine-KLH; set-up: species or system murine; conditions: competitor nucleotides 500 to 7.8 μg/ml preincubated with CA1USR mAb; DNA-Bind plates coated with 2′-deoxy-2′-C-allyl Uridine-KLH; FIG. 2
Procedure: N-oxy-succinimide ester derivatized 96 well plates (DNA-Bind; Costar/Corning, Corning, N.Y.) were coated overnight at room temperature with 50 ng/well of 2′-deoxy-2′-C-allyl Uridine-KLH. After two washes with phosphate buffered saline, 0.1% Tween (PBS-T), plates were blocked for 1 h with PBS plus 1% casein (Pierce, Rockford, Ill.). Hybridoma supernatant was incubated on the plates for 1 h, after which wells were washed 4 times with PBS-T. Positive wells were detected with peroxidase-conjugated F(ab)′2 Goat anti-mouse IgG (Pel-Freez, Rogers, Ark.), and developed with TMB substrate (Kirkegaard and Perry, 2 component; Gaithersburg, Md.). Plates were read on a Molecular Dynamics plate reader (Molecular Dynamics, Sunnyvale, Calif.) at 450 nm with 595 nm correction.
DNA-Bind plates were coated overnight with 50 ng/well of 2′-deoxy-2′-C-allyl Uridine-conjugated KLH. 60 μl volumes of the purified CA1USR mAb, at a concentration of 500 ng/ml, were incubated at 37° C. for 30 min with 60 μl volumes of a series of concentrations of competitor nucleotides, from a concentration of 500 to 7.8 μg/ml. The antibody-competitor mixtures were then plated on the 2′-C-allyl-KLH coated DNA-Bind plates, and the EIA proceeded as described for the fusion screening assay.

Row | Compound | Hematoxylin and eosin microscopy of granular structures in treated kidneys ([1]; 3 subcutaneous 100 mg/kg injections, kidney) | CA1USR mAb immunoreactivity (staining) in kidney [1] | inhibition of binding of CA1USR mAb to 2′-deoxy-2′-C-allyl Uridine-KLH [2]
1 | ANGIOZYME® ribozyme: synthetic 35-mer hammerhead ribozyme directed against VEGFR-1 mRNA with 2′-deoxy-2′-C-allyl Uridine at U4 (GAGUUGCUGAUGAGGCCGAAAGGCCGAAAGUCUG; 2'-deoxy-2'-C-allyl uridine at U4, chemistry not fully specified) | basophilic in character | intense 2′-deoxy-2′-C-allyl Uridine mAb immunoreactivity | –
2 | unmodified HERZYME™ ribozyme: ribozyme targeted to Her2 mRNA, structure different from the hammerhead motif (GCAGUGGCCGAAAGGCGAGUGAGGUCUAGCUCA; called unmodified, meaning without 2'-C-allyl U14, full chemistry not given here) | – | no staining | –
3 | C=CC[C@@H]1[C@H](O)[C@@H](CO)O[C@H]1n1ccc(=O)[nH]c1=O [2′-deoxy-2′-C-allyl Uridine] | – | – | able to inhibit
